Common to all, as to format: cell-based
The subject of assay [1] is mutant ERα (Y537S, D538G, L536R). The experiment in a line: Inhibition of mutant ERα-mediated transcription. The settings on record: MCF-7 cells, 100 nM, 24 hours.
Assay [2] deals with MCF-7 cells expressing doxycycline-inducible D538G mutant ERα. The experiment in a line: Inhibition of MCF-7 cell proliferation driven by D538G mutant ERα. The settings on record: Homo sapiens, MCF7, 120 h, read-out: Inhibition of Proliferation IC50 (nM ± SD).
For assay [3], the system named is MCF-7 cells expressing doxycycline-inducible Y537S mutant ERα. The assay is described as follows: cells. The settings on record: Homo sapiens, MCF7, 120 h, read-out: Inhibition of Proliferation IC50 (nM ± SD).
In assay [4] the test system is MCF-7 cells expressing doxycycline-inducible L536R mutant ERα. The experiment in a line: Inhibition of MCF-7 cell proliferation driven by L536R mutant ERα. The settings on record: Homo sapiens, MCF7, 120 h, read-out: Inhibition of Proliferation IC50 (nM ± SD).
The subject of assay [5] is MCF-7 cells expressing doxycycline-inducible WT ERα. The assay is described as follows: Inhibition of MCF-7 cell proliferation driven by WT ERα. The settings on record: Homo sapiens, MCF7, 120 h, read-out: Inhibition of Proliferation IC50 (nM ± SD).

As to `C[C@]12C[C@H](c3ccc(OCCCCCS(=O)(=O)CCCC(F)(F)C(F)(F)F)cc3)[C@@H]3c4ccc(O)cc4CC[C@H]3[C@@H]1CC[C@@H]2O` [RU58668], in assay [1], the “inhibition of mutant ER transcriptional activity (in words)” value is “block much of the activity of all three mutants”.
For `C[C@]12CC[C@@H]3c4ccc(O)cc4C[C@@H](CCCCCCCCC[S+]([O-])CCCC(F)(F)C(F)(F)F)[C@H]3[C@@H]1CC[C@@H]2O` (some centres unmarked) [fulvestrant], the IC50 was found to be 5.9 ± 0.6 nM in assay [2], 16 ± 1.8 nM in assay [3], 2.6 ± 0.4 nM in assay [4] and 0.31 ± 0.03 nM in assay [5].
